Each structure is given as a SMILES string.

Consider 2 compounds from ChEMBL document CHEMBL1123682, “5-Amino-4-(diazoacetyl)-1-beta-D-ribofuranosylimidazole, a new antileukemic agent” (J Med Chem, 1987).

For one assay, the system named is L1210. The assay can be described thus: Ability to inhibit growth of L1210 cells in culture was determined. Format: functional, cell-based. The conditions noted are these: Mus musculus, read-out: I50.
The next assay deals with HEp-2. The assay can be described thus: Ability to inhibit growth of human epithelial (H.Ep.-2) cells in culture. It counts as functional, cell-based. The note with it: read-out: I50.

On to `CC(=O)c1ncn([C@@H]2O[C@H](CO)[C@@H](O)[C@H]2O)c1N`, for which the IC50 in the assay on L1210 is above 120 µM. On to `[N-]=[N+]=CC(=O)C1=NNC([C@@H]2O[C@H](CO)[C@@H](O)[C@H]2O)C1=N` (stereo partly drawn), for which the IC50 with HEp-2 was 2 µM; in the assay on L1210, 3 µM.
